Where two headings read alike, the source gives them in different places.
Key:
Assay type in all cases: cell-based
[1] = tested on: T-Rex 293 cells having increased expression of estrogen receptor alpha protein; experiment: Cellular growth inhibition assay, T-Rex 293 cells, (+) doxycycline; conditions: T-REx-293, 72 h, 72 hours
Description: (§1) Exemplary compounds were tested for the ability to inhibit the proliferation of the following types of cells: (i) a T-Rex 293 cell line having increased expression of estrogen receptor alpha protein from exposure to doxycycline and (ii) a T-Rex 293 cell line lacking increased expression of estrogen receptor alpha protein.
(§2) The following types of cells were prepared for this experiment: (i) a T-Rex 293 cell line having increased expression of estrogen receptor alpha protein from exposure to doxycycline and (ii) a T-Rex 293 cell line lacking increased expression of estrogen receptor alpha protein. The ability of the test compounds to inhibit proliferation of the foregoing cell types was evaluated according to the procedures set forth below.
(§3) The doxycycline-inducible estrogen receptor alpha protein expressing cell line was established using the following protocol: T-Rex 293 cells were purchased from Invitrogen (Cat #R71007) and transfected using Lipofectamine 2000 with the wild-type estrogen receptor alpha protein sequence cloned into the pcDNA4/TO vector. Transfected cells were selected using 400 μg/mL Zeocin (Invitrogen Cat #R25001). Following selection, single clones were raised and maintained in Dulbecco's Modified Eagle Medium (DMEM) supplemented with 10% w/w Tetracycline-free fetal bovine serum (FBS) and 250 μg/mL Zeocin. Clones were analyzed for expression of estrogen receptor alpha protein in the presence and absence of 3 ng/mL doxycycline (Sigma Cat #D9891), and a single doxycycline-inducible clone (hereinafter “SC”) was selected for use in downstream assays.
(§4) The SC cells were seeded on poly-D-lysine coated, black clear-bottom 384-well plates at 2500/well, in 25 μL Phenol Red Free Dulbecco's Modified Eagle Medium (DMEM) supplemented with 10% w/w charcoal-dextran treated fetal bovine serum (FBS) and 1% w/w pen-strep, with or without 3 ng/mL doxycycline. Pen-Strep is a commercially available mixture of penicillin G and streptomycin, which is used in mammalian cell culture media to prevent bacterial contamination. Phenol Red Free Dulbecco's Modified Eagle Medium (DMEM) supplemented with 10% w/w charcoal-dextran treated fetal bovine serum (FBS) and 1% w/w pen-strep, with or without 3 ng/mL doxycycline is herein referred to as Treatment Medium. Following seeding of cells in the plates, the plates were spun at 300×g for 30 seconds, then equilibrated to room temperature for 30 minutes, and then deposited in a humidified tissue culture incubator maintained at 37° C. with 5% CO2.
(§5) At 24 hours after seeding of the cells, dilutions of test compound were prepared in DMSO and dissolved in Treatment Medium, to achieve a final DMSO concentration of 0.5% w/w, thereby providing the Test Compound Solution. A 25 μL aliquot of the Test Compound Solution was added to cells in the well plates. An equal volume of a solution containing DMSO and Treatment Medium was used as a negative control. Following treatment of cells with Test Compound Solution or said equal volume of a solution containing DMSO and Treatment Medium, the plates were spun at 300×g for 30 seconds, and then left in an incubator for 72 hours.
(§6) At the end of the treatment duration, cell viability was quantified with CellTiter-Glo 2.0 reagent (Promega Cat #G9243). For this purpose, plates were equilibrated to room temperature for 30 minutes, and then 25 μL of CellTiter-Glo 2.0 reagent was added to cells in the plate wells. Plates were then agitated on a shaker for two minutes at 500 rpm and subsequently incubated at room temperature for 10 minutes. Following incubation, the plates were spun at 3000×g for 30 seconds, then sealed with an optical adhesive cover, and luminescence readings were measured with an EnVision Plate Reader (Perkin Elmer).
(§7) Data was normalized using zero luminescence for baseline. […]

[2] = tested on: T-Rex 293 cells lacking increased expression of estrogen receptor alpha protein; experiment: Cellular growth inhibition assay, T-Rex 293 cells, (−) doxycycline; conditions: T-REx-293, 72 h, 72 hours
Description: as §1, §2, §3, §4, §5, §6, §7

[3] = tested on: MCF7 cells (ATCC #HTB-22); experiment: Cellular growth inhibition assay, MCF7 cells purchased from ATCC; conditions: Homo sapiens, MCF7, 144 h, Table 8-A; MCF7 cells purchased from ATCC; six days; CellTiter-Glo; read-out: GI50
Description: Exemplary compounds were tested for the ability to inhibit the proliferation of MCF7 cells.
MCF7 cells (ATCC #HTB-22 or ECACC #86012803) were cultured in RPMI 1640 medium supplemented with 10% heat-inactivated fetal bovine serum, 1% pen-strep, and 0.2 U/ml insulin. Cells were seeded in 25 μL of RPMI 1640 medium supplemented with 10% heat-inactivated fetal bovine serum, 1% pen-strep, 0.2 U/ml insulin in poly-D-lysine treated, black clear-bottom 384-well plates at 225 cells/well for MCF7 cells purchased from ECACC or 1,500 cells/well for MCF7 cells purchased from ATCC. Following seeding, plates were spun at 300×g for 30 seconds and cultured at 37° C. with 5% CO2 in a humidified tissue culture incubator.
At 24 hours after seeding, compounds were titrated in 100% DMSO and diluted in RPMI 1640 medium supplemented with 10% heat-inactivate fetal bovine serum, 1% pen-strep, and 0.2 U/ml insulin. A 25 μL aliquot of the compound/media mixture was added to cells, bringing the total volume in each well to 50 μL. An equal volume of DMSO without compound was used as a negative control. After treatment, plates were spun at 300×g for 30 seconds, then cultured at 37° C. with 5% CO2 for six days in a humidified tissue culture incubator.
On Day 6 of treatment, cell viability was quantified with CellTiter-Glo 2.0 reagent (Promega). Plates were equilibrated to room temperature for 30 minutes, then 25 μL of CellTiter-Glo 2.0 reagent was added to cells, bringing the total volume in each well to 75 μL. After reagent was added, plates were mixed on a shaker for two minutes at 500 rpm and then incubated at room temperature for 10 minutes. Following incubation, plates were spun at 3,000×g for 30 seconds, sealed with an optical adhesive cover, and luminescence readings were measured with an EnVision Plate Reader.
Data was normalized to 0 luminescence for baseline. A four-parameter, non-linear regression curve fit was applied to dose-response data in GraphPad Prism data analysis software to determine the half maximal growth inhibitory concentration (GI50) for each compound.

[4] = T-Rex 293 cells with doxycycline-induced ERα expression, CellTiter-Glo 2.0, read-out: (+) Dox TRex ERa (GI50)
[5] = T-Rex 293 cells without doxycycline, CellTiter-Glo 2.0, read-out: (−) Dox TRex ERa (GI50)
[6] = Table 7-A, T-Rex 293 cells with doxycycline (increased ERα expression), CellTiter-Glo, read-out: (+) Dox GI50
[7] = Table 7-A, T-Rex 293 cells without doxycycline (lacking increased ERα expression), CellTiter-Glo, read-out: (−) Dox GI50

`Cc1sc2c(c1C)C(c1ccc(OC3CC4(CCN(c5ccc(C(=O)c6c(-c7ccc(O)cc7)sc7cc(O)ccc67)cc5)CC4)C3)cc1)=N[C@@H](Cc1ncco1)c1nnc(C)n1-2` (single isomer, unassigned) [I-26, (6-hydroxy-2-(4-hydroxyphenyl)benzo[b]thiophen-3-yl)(4-(2-(4-(2,3,9-trimethyl-6-(oxazol-2-ylmethyl)-6H-thieno[3,2-f][1,2,4]triazolo[4,3-a][1,4]diazepin-4-yl)phenoxy)-7-azaspiro[3.5]nonan-7-yl)phenyl)methanone] was tested, and the GI50 [1, 4] was less than 50 nM, the GI50 [2, 5] was 50 to 500 nM and the GI50 [3] was less than 50 nM.

Molecule `Cc1sc2c(c1C)C(c1ccc(N3CCN(CC4CCN(c5ccc([C@H]6c7ccc(O)cc7CC[C@H]6c6ccccc6)cc5)CC4)CC3)cc1)=N[C@@H](C)c1nnc(C)n1-2` (single isomer, unassigned) [I-37a] has a GI50 [1, 6] of 50 to 500 nM, a GI50 [2, 7] of 500 to 2500 nM and a GI50 [3] of 50 to 500 nM.

With `Cc1sc2c(c1C)C(c1ccc(N3CCN(CC4CCN(c5ccc([C@@H]6c7ccc(O)cc7CC[C@@H]6c6ccccc6)cc5)CC4)CC3)cc1)=N[C@@H](C)c1nnc(C)n1-2` (single isomer, unassigned) [I-37b] the GI50 [1, 6] was 500 to 2500 nM, the GI50 [2, 7] was 500 to 2500 nM and the GI50 [3] was 500 to 2500 nM.

Molecule `CC1=C(c2c(F)cc(OCCOCCOc3ccc(C4=N[C@@H](C)c5nnc(C)n5-c5sc(C)c(C)c54)cc3)cc2F)C(c2ccccc2)Oc2ccc(O)cc21` (single isomer, unassigned) [I-39] has a GI50 [1, 4] of 50 to 500 nM, a GI50 [2, 5] of 500 to 2500 nM and a GI50 [3] of 50 to 500 nM.

Work on `Cc1sc2c(c1C)C(c1ccc(N3CCC(O)(CN4CCC(c5cc(F)c([C@H]6c7ccc(O)cc7CC[C@H]6c6ccc(F)cc6)c(F)c5)CC4)CC3)cc1)=N[C@@H](C)c1nnc(C)n1-2` (single isomer, unassigned) [III-244] yielded a GI50 [1, 6] greater than 2500 nM, a GI50 [2, 7] greater than 2500 nM and a GI50 [3] of 50 to 500 nM.

For `Cc1sc2c(c1C)C(c1ccc(N3CCC(O)(CN4CCC(c5cc(F)c([C@@H]6c7ccc(O)cc7CC[C@@H]6c6ccc(F)cc6)c(F)c5)CC4)CC3)cc1)=N[C@@H](C)c1nnc(C)n1-2` (single isomer, unassigned) [III-245], the GI50 [1, 6] was less than 50 nM, the GI50 [2, 7] was 500 to 2500 nM and the GI50 [3] was less than 50 nM.

With `COc1cc(N2CCN(CC3(O)CCN(c4ccc(C5=N[C@@H](C)c6nnc(C)n6-c6sc(C)c(C)c65)cc4)CC3)CC2)ccc1[C@H]1c2ccc(O)cc2CC[C@H]1c1ccc(F)cc1` (single isomer, unassigned) [III-275] the GI50 [1, 6] was 50 to 500 nM, the GI50 [2, 7] was 50 to 500 nM and the GI50 [3] was 50 to 500 nM.

Molecule `COc1cc(N2CCN(CC3(O)CCN(c4ccc(C5=N[C@@H](C)c6nnc(C)n6-c6sc(C)c(C)c65)cc4)CC3)CC2)ccc1[C@@H]1c2ccc(O)cc2CC[C@@H]1c1ccc(F)cc1` (single isomer, unassigned) [III-276] has a GI50 [1, 6] of less than 50 nM, a GI50 [2, 7] of 500 to 2500 nM and a GI50 [3] of less than 50 nM.

Molecule `COc1cc(N2CCN(CC3(O)CCN(c4ccc(C5=N[C@@H](C)c6nnc(C)n6-c6sc(C)c(C)c65)cc4)CC3)CC2)ccc1[C@@H]1c2ccc(O)cc2CC[C@@H]1c1ccccc1F` (single isomer, unassigned) [III-307] has a GI50 [1, 6] of less than 50 nM, a GI50 [2, 7] of 500 to 2500 nM and a GI50 [3] of less than 50 nM.

Work on `COc1cc(N2CCN(CC3(O)CCN(c4ccc(C5=N[C@@H](C)c6nnc(C)n6-c6sc(C)c(C)c65)cc4)CC3)CC2)ccc1[C@H]1c2ccc(O)cc2CC[C@H]1c1ccccc1F` (single isomer, unassigned) [III-308] yielded a GI50 [1, 6] of 50 to 500 nM, a GI50 [2, 7] of 50 to 500 nM and a GI50 [3] of 50 to 500 nM.

`COc1cc(N2CCN(CC3(O)CCN(c4ccc(C5=N[C@@H](C)c6nnc(C)n6-c6sc(C)c(C)c65)cc4)CC3)CC2)c(F)cc1[C@@H]1c2ccc(O)cc2CC[C@@H]1c1ccccc1` (single isomer, unassigned) [III-311] was tested, and the GI50 [1, 6] was less than 50 nM, the GI50 [2, 7] was 500 to 2500 nM and the GI50 [3] was less than 50 nM.

Work on `COc1cc(N2CCN(CC3(O)CCN(c4ccc(C5=N[C@@H](C)c6nnc(C)n6-c6sc(C)c(C)c65)cc4)CC3)CC2)c(F)cc1[C@H]1c2ccc(O)cc2CC[C@H]1c1ccccc1` (single isomer, unassigned) [III-312] yielded a GI50 [1, 6] of 50 to 500 nM, a GI50 [2, 7] of 50 to 500 nM and a GI50 [3] of 50 to 500 nM.

`CCN(CCOCCOCCOCCOCCOCCOCCCCCCCCc1cc(Cl)cc(NC(=O)NCc2ccc3c(c2)CN(C2CCC(=O)NC2=O)C3=O)c1)CCOc1ccc(C(=O)c2c(-c3ccc(O)cc3)sc3cc(O)ccc23)cc1` (stereo not drawn) [II-1] was tested, and the GI50 [3] was less than 50 nM.

`CCN(CCCCCCCCc1cc(Cl)cc(NC(=O)NCc2ccc3c(c2)CN(C2CCC(=O)NC2=O)C3=O)c1)CCOc1ccc(C(=O)c2c(-c3ccc(O)cc3)sc3cc(O)ccc23)cc1` (stereo not drawn) [II-3] was tested, and the GI50 [3] was less than 50 nM.

Molecule `Cc1sc2c(c1C)C(c1ccc(N3CCC(O)(CN4CCC(c5cc(F)c([C@H]6c7ccc(O)cc7CC[C@H]6c6ccc(F)cc6)c(F)c5)CC4)CC3)cc1F)=N[C@@H](C)c1nnc(C)n1-2` [III-337, 4-((4-(3,5-difluoro-4-((1R,2R)-2-(4-fluorophenyl)-6-hydroxy-1,2,3,4-tetrahydronaphthalen-1-yl)phenyl)piperidin-1-yl)methyl)-1-(3-fluoro-4-((6S)-2,3,6,9-tetramethyl-6H-thieno[3,2-f][1,2,4]triazolo[4,3-a][1,4]diazepin-4-yl)phenyl)piperidin-4-ol] has a GI50 [1, 6] of 50 to 500 nM and a GI50 [2, 7] of 500 to 2500 nM.

`Cc1sc2c(c1C)C(c1ccc(N3CCC(O)(CN4CCC(c5cc(F)c([C@@H]6c7ccc(O)cc7CC[C@@H]6c6ccc(F)cc6)c(F)c5)CC4)CC3)cc1F)=N[C@@H](C)c1nnc(C)n1-2` [III-338, 4-((4-(3,5-difluoro-4-((1S,2S)-2-(4-fluorophenyl)-6-hydroxy-1,2,3,4-tetrahydronaphthalen-1-yl)phenyl)piperidin-1-yl)methyl)-1-(3-fluoro-4-((6S)-2,3,6,9-tetramethyl-6H-thieno[3,2-f][1,2,4]triazolo[4,3-a][1,4]diazepin-4-yl)phenyl)piperidin-4-ol] showed a GI50 [1, 6] of less than 50 nM and a GI50 [2, 7] of 500 to 2500 nM.

From patent publication US12558428B2, “Heterobifunctional compounds and their use in treating disease” (Halda Therapeutics OpCo, Inc., priority 2024, dated 2026)
